# According to patent US20250268938A1, “SMALL MOLECULE-REGULATED CELL SIGNALING EXPRESSION SYSTEM” (Outpace Bio, Inc., priority 2021, published 2025):
# How the values were obtained:
# Jurkat cells = test: Kill switch percent killing in Jurkat cells (flow cytometry); format: cell-based
# Protocol: Kill switch-positive cells (le5) were incubated for 24-48 hours with inducer drug before staining and analysis for death. Conditions were normalized to contain about 50% transduction positive (+) cells by adding untransduced Jurkat or primary T cells in order to get accurate statistics on death.
# Flow cytometry was performed on a Ze5 cytometer (Biorad). To determine expression of markers, between 1×10^5-2×10^5 total cells were transferred to a U-bottom 96 well culture dish (Corning). Cells were washed twice with Cell Staining Buffer (BioLegend), then stained with Zombie Violet (1:1000, BioLegend) and ROR1-FC for ROR1-specific CAR constructs (20 min at room temperature). Cells were washed twice in Cell Staining Buffer, then stained with Annexin V-PE (BD) in 1× Annexin V Binding Buffer (BD) for 15 min at room temperature. After staining, cells were washed once with Annexin V Binding Buffer, resuspended in AnneinV Binding Buffer and immediately analyzed.
# (§1) Flow cytometry data was analyzed using FlowJo 10 (Tree Star). Percent killing was calculated by gating on live cells, then calculating 100*((percent GFP positive DMSO condition)−(percent GFP positive drug condition))/(percent GFP positive DMSO condition).
# We first tested for drug-induced death of Jurkat cells by fusing NS3a and DNCR2 separately to the catalytic domain of caspase-9 (NCDC). The small molecule inducible homodimer FKBP-F36V (iCasp9), which is dimerized by AP1903 (rimiducid) and the inducible heterodimer FKBP/rapamycin/FRB dimer (rapaCasp9) were used as controls. Briefly, Jurkat cells expressing NCDC, iCasp9, or rapaCasp9 were exposed to danoprevir, rimiducid or rapamycin, respectively, for 24 hours and analyzed by flow cytometry with gating set to measure killing in the top about 10% of cells expressing the highest amount of the GFP kill switch transduction marker.
# To evaluate the kill switch designs of FIG. 8A, constructs were expressed in Jurkat cells, treated with 500 nM danoprevir (DNCR2-casp-9) or 500 nM grazoprevir (GNCR1-casp-9) and cell death measured by percent killing as described herein above.
# The miniaturized versions of DNCR2, D1 and D9, were fused to caspase-9 and co-expressed in Jurkat cells with homo-oligomerized NS3a scaffolds. We also evaluated a CAR construct that included an additional copy of NS3a (CAR-2×NS3a). The original DNCR2-casp-9 was used as a control. Jurkat cells expressing different DNCR2 variants fused to caspase-9 along with CAR-NS3a, CAR-NS3a-NS3a, or dimer-NS3a were treated with 500 nM danoprevir and cell death was measured by percent killing as described herein above.
# (§2) We explored the ability of other human killing domains to induce cell death in Jurkat and primary human T cells. We fused FKBP-F36V to a panel of killing domains that included caspase-9 D330A, caspase-9, caspase-1, caspase-4, and the necroptosis-inducing protein RIPK3. Briefly, Jurkat and primary human CD4+/CD8+ T cells expressing FKBP(F36V)-fused killing domains were treated with 10 nM rimiducid and cell death was measured by percent killing as described herein above.
# [1] = system: Jurkat CD3ζ-signaling reporter line; test: CAR signaling (tdTomato) in Jurkat CD3ζ-signaling reporter line; format: cell-based; details: for CAR signaling, tdTomato intensity, drug switch: grazoprevir at time zero, washed and danoprevir at 48 hours, tracked additional 72 hours
# Protocol: (§3) For IncuCyte analysis of CD3ζ-signaling tdTomato reporter line with CARs and DNCR2-casp-9 kill switch (with EGFP transduction maker), 5e4 CAR+ cells were plated per well in poly-D-Lys coated plate in which 5e4 Jeko1 cells were previously seeded. Drug (e.g., grazoprevir, danoprevir) was added to given final concentration and cells were imaged for tdTomato and EGFP signal at 20×, 800 msec exposure, 4 images/well, every 3 hours. Cells were removed from the Incucyte plate to a v-bottom plate for 2 washes in PBS at 48 hours when the drug condition was changed.
# (§4) Coculture for flow analysis of the CAR/kill switch constructs was setup 24 hours before analysis. CAR-positive cells (le5 cells; part I and part II positive, i.e., ROR1+ and EGFRt+ (part II marker)) were mixed with le5 Jeko1 cells and drug. Cells were analyzed for ROR1, EGFRt ([…]), tdTomato, EGFP, and viability as described hereinbelow.
# (§5) To evaluate the use of two drug inputs to control two different signaling outputs, we used a Jurkat cell CD3ζ-signaling reporter line expressing the red fluorescent protein tdTomato to track CAR signaling, and the loss of the transduction marker (EGFP) of the DNCR2-caspase-9 construct to track Jurkat cell death.
# (§6) We tested the ability to switch between CAR signaling and induction of apoptosis over time in an IncuCyte assay. Briefly, the CD3ζ-signaling reporter line expressing the dual-function GNCR1-CAR/DNCR2-casp9 was mixed 1:1 with Jeko1 cells and treated with 500 nM grazoprevir or danoprevir, or DMSO. Over a period of 48 hours, CAR signaling was tracked by tdTomato intensity and drug-induced cell death (i.e., activation of the safety switch) was monitored by tracking the transduction marker EGFP intensity.
# (§7) We then tested the ability to switch from induction of CAR signaling with grazoprevir to induction of apoptosis with danoprevir. Briefly, CAR signaling was activated by grazoprevir treatment at time zero. After 48 hours, the cells were washed and treated with danoprevir. CAR signaling (tdTomato intensity) and cell viability (EGFP intensity) were tracked over an additional 72-hour period.
# [2] = system: Jurkat CD3ζ-signaling reporter line; test: Drug-induced cell death (loss of EGFP transduction marker) in Jurkat CD3ζ-signaling reporter line; format: cell-based
# Protocol: as §3, §4
# Percent killing was calculated by gating on live cells, then calculating 100*((percent GFP positive DMSO condition)−(percent GFP positive drug condition))/(percent GFP positive DMSO condition).
# as §5, §6, §7
# danoprevir/NS3a complex = details: cited from earlier work
# [3] = system: primary human CD4+/CD8+ T cells; test: Kill switch percent killing in primary human T cells; format: cell-based; details: 10 nM rimiducid, range of transduction levels
# Protocol: Pre-selected, cryopreserved primary human CD4 T cells from normal donors were obtained from Bloodworks (Seattle WA). Human T cells were cultured in OpTmizer medium (Thermo Fisher) supplemented with Immune Cell Serum Replacement (Thermo Fisher), 2 mM L-glutamine (Gibco), 2 mM Glutamax (Gibco), 200 IU/ml IL-2 (R&D systems), 120 IU/ml IL-7 (R&D systems), and 20 IU/ml IL-15 (R&D systems).
# For lentiviral transduction, T cells were stimulated with a 1:100 dilution of T cell TransAct (Miltenyi) for 30 hours. Virus was then added to T cells for 18-24 hours. […]
# Flow cytometry was performed on a Ze5 cytometer (Biorad). […] After staining, cells were washed once with Annexin V Binding Buffer, resuspended in AnneinV Binding Buffer and immediately analyzed.
# as §1
# as §2, with “We fused FKBP-F36V to a panel of killing domains that included caspase-9 D330A, caspase-9, caspase-1, caspase-4, and the necroptosis-inducing protein RIPK3.” left out
# [4] = system: CD69 expression in CAR expressing Jurkat cells; test: Induction of CD69 expression in CAR expressing Jurkat cells co-cultured with Jeko1 cells (flow cytometry); format: cell-based; details: conventional single-chain ROR1-CAR Jurkat cells with Jeko1 cells; 500 nM danoprevir
# Protocol: NS3a-based regulated CARs were evaluated using lentiviral transduction of T cells and flow cytometry analysis. The CARs evaluated are specific for the ROR1 antigen expressed on the target cell line Jeko1. The Jurkat and Jeko1 cell lines were obtained from American Type Culture Collection (Manassas, VA) and maintained in RPMI 1640 media with Glutamax (Gibco) containing 10% fetal calf serum (Gibco). For lentiviral transduction, Jurkat cells were incubated with lentivirus in complete media plus LentiBOOST at the manufacturers recommended concentration (Sirion Biotech). Eighteen hours after transfection, lentivirus and LentiBOOST were diluted by addition of 1 volume fresh media.
# For flow analysis of induction of CD69 expression, Jurkat cells were mixed 1:1 with Jeko1 cells or Jeko1-ROR1-KO cells. Drug was added to a final concentration of 500 nM. Cultures were incubated with drug for 24 hours before flow analysis for surface markers.
# Flow cytometry of CAR experiments was performed on a Ze5 cytometer (Biorad). […] Flow cytometry data was analyzed using FlowJo 10 (Tree Star).
# The three NS3a-based regulated CARs described hereinabove with reference to FIG. 1B were evaluated in the Jurkat cell line. […] CD69 expression, a T cell activation marker, was detected by flow cytometry, gating on live CD3+/ROR1+ cells.
# [5] = IncuCyte, over 48 hours, GNCR1-CAR/DNCR2-casp9 cells 1:1 with Jeko1, 500 nM drug
molecule,measurement,setting,value
"CC(C)(C)OC(=O)N[C@H]1CCCCC/C=C\[C@@H]2C[C@@]2(C(=O)NS(=O)(=O)C2CC2)NC(=O)[C@@H]2C[C@@H](OC(=O)N3Cc4cccc(F)c4C3)CN2C1=O [danoprevir, (2R,6S,12Z,13aS,14aR,16aS)-14a-[(Cyclopropylsulfonyl)carbamoyl]-6-({[(2-methyl-2-propanyl)oxy]carbonyl}amino)-5,16-dioxo-1,2,3,5,6,7,8,9,10,11,13a,14,14a,15,16,16a-hexadecahydrocyclopropa[e]pyrrolo[1,2-a][1,4]diazacyclopentadecin-2-yl 4-fluoro-1,3-dihydro-2H-isoindole-2-carboxylate]","percent killing, two-chain direct dimerization design NCDC","Jurkat cells; NS3a-casp-9/DNCR2-casp-9 (NCDC), drug titration, 24 hours, top about 10% GFP-expressing Jurkat cells",modest killing
same,"CAR signaling, tdTomato intensity, drug switch",[1],declines
same,effect on Jurkat cells expressing a conventional CAR with DNCR2-casp-9,[2]; 500 nM drug,no effect
same,percent killing (safety-switch),"[2]; GNCR1-CAR/DNCR2-casp-9 system, 500 nM drug, loss of EGFP-positive population relative to DMSO",triggered
same,"cell viability, EGFP intensity",[2]; [5],decreased cell viability
same,"cell viability, EGFP signal, drug switch","[2]; danoprevir added at 48 hours, with or without previous grazoprevir treatment",began to drop
C=C[C@@H]1C[C@]1(NC(=O)[C@@H]1C[C@@H]2CN1C(=O)[C@H](C(C)(C)C)NC(=O)O[C@@H]1C[C@H]1CCCCCc1nc3ccc(OC)cc3nc1O2)C(=O)NS(=O)(=O)C1CC1.O [grazoprevir],"CAR signaling, tdTomato intensity",[1]; [5],only activated
same,"CAR signaling, tdTomato gMFI","[1]; dual-function GNCR1-CAR/DNCR2-casp-9, 500 nM drug, flow cytometry",activated
same,"CAR signaling, tdTomato intensity, drug switch",[1],increases
same,effect on Jurkat cells expressing a conventional CAR with DNCR2-casp-9,[2]; 500 nM drug,no effect
DNCR2: danoprevir/NS3 complex reader polypeptide (SSDEEEARELIERAKEAAERAQEAAERTGDPRVRELARELKRLAQEAAEEVKRDPSSSD),affinity for the danoprevir/NS3a complex,danoprevir/NS3a complex,high affinity
RIPK3: FKBP-F36V fused to the necroptosis-inducing protein RIPK3,"percent killing, FKBP(F36V)-fused killing domains",[3],not able to induce cell death
same,"percent killing, FKBP(F36V)-fused killing domains","Jurkat cells; Jurkat cells, 10 nM rimiducid, range of transduction levels",not able to induce cell death
"Conventional CAR: conventional, single-chain ROR1-CAR (protein) CPPCPMFWVLVVVGGVLACYSLLVTVAFIIFWVKRGRKKLLYIFKQPFMRPVQTTQEEDGCSCRFPEEEEGGCELRVKFSRSADAPAYQQGQNQLYNELNLGRREEYDVLDKRRGRDPEMGGKPRRKNPQEGLYNELQKDKMAEAYSEIGMKGERRRGKGHDGLYQGLSTATKDTYDALHMQALPPR","CD69 expression, regulation in response to danoprevir",[4],no significant regulation
